From EP0430884B1, “Insecticides and antiparasitic agents” (CIBA-GEIGY AG, priority 1989, dated 1991)

Test system: Haemonchus contortus und Trichostrongylus colubriformis
Experiment: B-3 test on sheep infected with nematodes (worm egg count in faeces)
Type: in vivo, Schafe
Excerpt: Milbemycine mit einer 13β-Alkylthiogruppe sind als Insektizide und Parasitizide aus der Europäischen Offenlegungsschrift EP-0,184,173 bzw. dem korrespondierenden Britischen Patent GB-2,167,751B bekannt. Die biologische Aktivität der 13β-Ethylthiomilbemycine kann man jedoch überraschenderweise durch Einführung der erfindungsgemässen, terminalen [drawing 26] (worin R₃ und X die unter Formel I angegebenen Bedeutungen haben) in die 2-Position der 13β-Ethylgruppe signifikant erhöhen. Vergleicht man z.B. die Verbindung Nr. 1.14 aus obigen Publikationen [drawing 27] mit der erfindungsgemässen Substanz Nr. 1.13 (vgl. Tab. 1) [drawing 28] gemäss dem weiter unten beschriebenen biologischen Beispiel B-3 an Schafen, die mit den Nematoden Haemonchus contortus und Trichostrongylus colubriformis infiziert wurden, so findet man bei einmaliger intraruminaler Applikation von 0,1 mg Aktivsubstanz/kg Körpergewicht folgende Resultate (angegeben in Reduktion der Wurmeier im Kot verglichen mit der Zahl der Eier bei infizierten, aber unbehandelten Schafen):
Der Wirkstoff wird als Suspension formuliert mit einer Magensonde oder durch Injektion in den Pansen eines Schafes gegeben, das mit Haemonchus contortus und Trychostrongylus colubriformis künstlich infiziert worden ist. Pro Dosis werden 1 bis 3 Tiere verwendet. […]

## CC[C@H]1O[C@]2(CC[C@@H]1C)C[C@@H]1C[C@@H](C/C=C(\C)[C@H](SCCc3ccc(NC(=O)OC)cc3)[C@@H](C)/C=C/C=C3\CO[C@@H]4[C@H](O)C(C)=C[C@@H](C(=O)O1)[C@]34O)O2 [1.13, 13β-(2-[4-(Methoxycarbonylamino)phenyl]ethylthio)milbemycin A4]
Versuch 1, single intraruminal application of 0,1 mg Aktivsubstanz/kg Körpergewicht
  Reduktion der Wurmeier im Kot verglichen mit der Zahl der Eier bei infizierten, aber unbehandelten Schafen: 99%
Versuch 2 (Wiederholung von 1), single intraruminal application of 0,1 mg Aktivsubstanz/kg Körpergewicht
  Reduktion der Wurmeier im Kot verglichen mit der Zahl der Eier bei infizierten, aber unbehandelten Schafen: 93%
